Where “and” joins values, the source holds several entries; their conditions need not be identical. Identical values can stand only once. Like-named read-outs stand apart in the source and are kept apart here.

The conditions of the data set: for Recoverable rifampin after sterilization, Post EtO % / Recoverable rifampin after sterilization, Post e-beam % / Recoverable rifampin after sterilization, Post gamma % / Recoverable rifampin after sterilization, Post Steam %: relative to pre-sterilization (100%). How it is done: Materials and Methods: Minocycline and rifampin were incorporated into discs, sheet stock and silicone boots and subjected to Steam, EtO, gamma radiation and e-beam sterilization as follows:
Each boot was cut into pieces (24) with scissors. The pieces were extracted together in a 60-125 ml jar w/top. All the pieces were placed in jar, and 4:1 THF/ethanol (50 mL for thick boots; 15 mL for thin boots) was added. The pieces were allowed to swell, and the drug is extracted for 1 hour (1st extraction). The extract was then collected and transferred to a 25-100 mL volumetric flask. A second 4:1 THF/ethanol (50 mL for thick boots w/holes; 10 mL for thin boots with holes) extraction was added to the jar, and the transfer pipette was rinsed with this second extract and discarded. The pieces were allowed to swell, and the drug is extracted for 1 hour (2nd extraction). The extract was then collected and transferred to the 25-100 mL volumetric flask containing the first extract. A small amount of extra solvent was needed to make up to volume due to solvent lost to evaporation and polymer swell. This amount also served as a final rinse of both the polymer and the transfer pipette.
Extraction Process—Sheet Stock
Discs was cut from the sheet stock with a die press. The discs were extracted separate in a 1 oz jar w/top. 4:1 THF/ethanol (5 mL) was added. The pieces were allowed to swell, and the drug is extracted for 1 hour (1st extraction). The extract was then collected and transferred to a 10 mL volumetric flask. A second 4:1 THF/ethanol (5 mL) extraction was added to the jar, and the transfer pipette was rinsed with this second extract and discarded. The pieces were allowed to swell, and the drug is extracted for 1 hour. (2nd extraction). The extract was then collected and transferred to the 10 mL volumetric flask containing the first extract. A small amount of extra solvent was needed to make up to 10 mL due to solvent lost to evaporation and polymer swell. This amount also served as a final rinse of both the polymer and the transfer pipette.
After extraction with THF/ethanol 4:1, extract was transferred to an HPLC vial and injected directly. The following high performance liquid chromatography (HPLC) method was used:
1. Chromatographic Conditions: • Instrument: Agilent 1100 stack • Column: Prodigy analytical column (150×4.6 mm) • Detection mode: UV detection at 238 nm • Flow rate: 1.0 mL/min • Column temperature: 25° C. • Injection volume: 10 uL • Mobile phase A: 1.4 g/L dibasic sodium phosphate buffer pH 6.8 • Mobile phase B: ACN 100%

Take `CO[C@H]1/C=C/O[C@@]2(C)Oc3c(C)c(O)c4c(O)c(c(/C=N/N5CCN(C)CC5)c(O)c4c3C2=O)NC(=O)/C(C)=C\C=C\[C@H](C)[C@H](O)[C@@H](C)[C@@H](O)[C@@H](C)[C@H](OC(C)=O)[C@@H]1C` [rifampin]: the “rifampin remaining with EtO sterilization” value is recorded as 46.0-77.5%. The “Recoverable rifampin after sterilization, Post EtO %” value (shortened to “Recoverable rifampin … Post EtO %”) (medium 4735–0.005″ Sheet stock) was 46.0%. Also, under “medium 4735–0.015″ Sheet stock”, the “Recoverable rifampin … Post EtO %” value is 72.0%. The “Recoverable rifampin … Post EtO %” value (medium 4850–0.005″ Boot) is listed as 65.4%. The “Recoverable rifampin … Post EtO %” value (medium 4850–0.005″ Sheet Stock) was 74.1% and 59.1%. Moreover, the “Recoverable rifampin … Post EtO %” value (medium 4850–0.015″ Boot) was 77.5%. For the setting “medium 4850–0.015″ Sheet Stock”, the “Recoverable rifampin … Post EtO %” value is given as 71.6%. For the same molecule, for the setting “e-beam, medium 4735–0.015″ Boot”, the “Recoverable rifampin after sterilization, Post e-beam %” value came out at 90.2%. Also, the “Recoverable rifampin after sterilization, Post e-beam %” value (e-beam, medium 4735–0.015″ Sheet stock) is 95.1% and 92.4%. Besides, under “e-beam, sheet stock, range”, the “incorporated rifampin recovered after e-beam sterilization” value is listed as 92.4-95.1%. For the same molecule, the “incorporated rifampin recovered after ethylene oxide sterilization” value (ethylene oxide, sheet stock incorporating minocycline and rifampin, range over the media tested) is given as 46.0-74.1%. Moreover, where the note is “gamma radiation, medium 4735–0.005″ Sheet stock”, the “Recoverable rifampin after sterilization, Post gamma %” value (“Recoverable rifampin … Post gamma %” for short) was determined as 81.4%. In addition, the “Recoverable rifampin … Post gamma %” value (gamma radiation, medium 4735–0.015″ Sheet stock) was 82.8% and 88.6%. Besides, under “gamma radiation, medium 4850–0.005″ Sheet Stock”, the “Recoverable rifampin … Post gamma %” value was 71.5%. For the same molecule, where the note is “gamma radiation, medium 4850–0.015″ Sheet Stock”, the “Recoverable rifampin … Post gamma %” value is given as 78.4%. Moreover, the “incorporated rifampin recovered after gamma radiation” value (gamma radiation, sheet stock, range over the media tested) is given as 75.1-88.6%. For the same molecule, the “Recoverable rifampin after sterilization, Post Steam %” value (from here on “Recoverable rifampin … Post Steam %”) (steam sterilization, medium 4735–0.015″ Sheet stock) worked out at 34.3%. The “Recoverable rifampin … Post Steam %” value (steam sterilization, medium 4850–0.005″ Sheet Stock) came out at 19.5%. Moreover, the “Recoverable rifampin … Post Steam %” value (steam sterilization, medium 4850–0.015″ Sheet Stock) worked out at 28.3%. Besides, the “rifampin recoverable after steam sterilization” value (steam sterilization, silicone sheet stock, range over the media tested) is 19.5 to 34.3%.

`CN(C)c1ccc(O)c2c1C[C@H]1C[C@H]3[C@H](N(C)C)C(O)=C(C(N)=O)C(=O)[C@@]3(O)C(O)=C1C2=O` [minocycline]: the “Recoverable minocycline remaining after sterilization, Post Steam %” value was determined as 0% and the “minocycline remaining with EtO sterilization” value is on record as 86.8-100%.

Values taken from patent US20080075628A1, “STERILIZED MINOCYCLINE AND RIFAMPIN-CONTAINING MEDICAL DEVICE” (MEDTRONIC, INC., priority 2006, published 2008).
